Experimental data published in patent US5571524A, “Agent for curing ischemic myocardial disease” (Unitika Ltd., priority 1994, dated 1996).

Experiments:
Mongrel dogs [1] = experiment: Coronary blood flow increase effect, nonischemic condition; type: in vivo; details: for Coronary blood flow: N = 1 - 2; for coronary blood flow increase: nonischemic
Procedure: (§1) Mongrel dogs weighing 18-22 kg were anesthetized with pentobarbital sodium (30 mg/kg). The trachea was intubated, and the dog was ventilated with room air with oxygen. The chest was opened through the left fifth intercostal space, and the heart was suspended in a pericardial cradle. The left anterior descending coronary artery was cannulated and perfused with blood via the carotid artery through an extracorporeal bypass tube after heparinization (500 units/kg). Coronary blood flow (CBF) was measured with an electromagnetic flow probe attached to the bypass tube, and coronary perfusion pressure (CPP) was monitored at the tip of the coronary arterial cannula. A small, short collecting tube was cannulated into a small coronary vein near the center of the perfused area to sample coronary venous blood. The drained venous blood was collected in a reservoir placed at the level of the left atrium. A high fidelity of left ventricular pressure and its first derivative were measured by a micromanometer (model P-5, Konigsberg Instruments, Inc., Pasadena, Calif.) placed in the left ventricular cavity through the apex. A pair of ultrasonic crystals was placed in the center of the perfused area about 1 cm apart to measure myocardial segment length with an ultrasonic dimension gauge (5 MHz, Schuessler, Cardiff by the Sea, Calif.). End-diastolic length (EDL) was determined at the R wave of the electrocardiogram, and end-systolic length (ESL) was determined at the minimal dP/dt. Fractional shortening was calculated by (EDL-ESL)/EDL as an index of myocardial contractility of the perfused area.
After stabilization, a physiological saline solution […], with the dosage thereof increased to 0.5, 1, 2, 4 and 8 μg/kg/min, and the changes in coronary blood flow were measured in order to assess the coronary blood flow increase effect of Ap4A.
8-sulfophenyltheophylline (hereinafter referred to as 8-SPT) serving as adenosine P1 receptor antagonist with a dose of 25 μg/kg/min was tested.
The above test was also repeated by replacing 8-SPT with N^G -nitro-L-arginine methyl ester (hereinafter referred to as L-NAME) serving as an endothelial-cell-induced nitric oxide (NO) synthesis inhibitor with a dose of 3 μg/kg/min(ic).
The above test was then repeated using 8-SPT and L-NAME in combination.

Mongrel dogs [2] = experiment: Myocardial oxygen consumption (MVO2), nonischemic condition; type: in vivo; details: for Myocardial oxygen consumption: control 9.1
Procedure: as §1
After stabilization, a physiological saline solution prepared by dissolving Ap4A.4Na in physiological saline was continuously infused into the coronary artery, with the dosage thereof increased to 0.5, 1, 2, 4 and 8 μg/kg/min, and the changes in coronary blood flow were measured in order to assess the coronary blood flow increase effect of Ap4A.
Changes in myocardial oxygen consumption (MVO2) (ml/100 g/min) caused by the administration of Ap4A were measured as shown in TABLE 2.

Mongrel dogs [3] = experiment: Amelioration of myocardial ischemia: coronary blood flow, fractional shortening and perfusion pressure during factitious 1/3 blood flow; type: in vivo; details: for Myocardial fractional shortening / Coronary blood flow / Coronary perfusion pressure: ischemia (1/3 blood flow), N = 2
Procedure: as §1
(§2) After stabilization, CPP was decreased with partial occlusion of the bypass tube to the left anterior descending coronary artery such that CBF decreased to one third of the control flow. The low CPP was maintained during this test.
(§3) Blood sampling from coronary veins and coronary arteries was conducted. Then the intracoronary administration of Ap4A was stopped. The lowered coronary perfusion pressure was further maintained for 10 minutes.
(§4) The above test was repeated by replacing Ap4A with adenosine with the dosage thereof being changed to 4, 8 and 16 μg/kg/min.

Mongrel dogs [4] = experiment: Lactate extraction ratio and pH of venous blood during ischemia; type: in vivo; details: ischemia (1/3 blood flow), N = 2
Procedure: as §1
Namely, the lactate extraction ratio was obtained by coronary arteriovenous difference in lactate concentration multiplied by 100 and divided by arterial lactate concentration.
as §2, §3, §4
As mentioned previously, in the above-mentioned experimental systems, lactate extraction ratio and pH of venous blood were measured at the time of the intracoronary administration of Ap4A and also at the time of the intracoronary administration of adenosine.

human platelet = details: Leuthje and Ogiluie 1984; cited from earlier work
[5] = tested on: rabbit mesenteric arteries; details: R. Busse et al. 1988; cited from earlier work
[6] = Japanese Laid-Open Patent Application 3-167126; cited from earlier work
[7] = Japanese Laid-Open Patent Application 5-286861; cited from earlier work
coronary vessels = details: at normal time; cited from earlier work
[8] = cited from earlier work

Nc1ncnc2c1ncn2[C@@H]1O[C@H](COP(=O)(O)OP(=O)(O)OP(=O)(O)OP(=O)(O)OC[C@H]2O[C@@H](n3cnc4c(N)ncnc43)[C@H](O)[C@@H]2O)[C@@H](O)[C@H]1O [Ap4A, Diadenosine 5',5"'-p^1, p^4 -tetraphosphate]
coronary blood flow increase effect of Ap4A in presence of 8-SPT (Mongrel dogs [1]; 8-SPT 25 μg/kg/min): partially inhibited | coronary blood flow increase effect of Ap4A in presence of 8-SPT and L-NAME (Mongrel dogs [1]; 8-SPT and L-NAME in combination): not completely inhibited | coronary blood flow increase effect of Ap4A in presence of L-NAME (Mongrel dogs [1]; L-NAME 3 μg/kg/min (ic)): only slightly inhibited | Coronary blood flow (Mongrel dogs [1]; Untreated (no inhibitor), Ap4A 0.5 μg/kg/min intracoronary, control 93.7): 104.1 ml/100 g/min | Coronary blood flow (Mongrel dogs [1]; Untreated (no inhibitor), Ap4A 1 μg/kg/min intracoronary, control 93.7): 122.2 ml/100 g/min | Coronary blood flow (Mongrel dogs [1]; Untreated (no inhibitor), Ap4A 2 μg/kg/min intracoronary, control 93.7): 137.6 ml/100 g/min | Coronary blood flow (Mongrel dogs [1]; Untreated (no inhibitor), Ap4A 4 μg/kg/min intracoronary, control 93.7): 158.9 ml/100 g/min | Coronary blood flow (Mongrel dogs [1]; Untreated (no inhibitor), Ap4A 8 μg/kg/min intracoronary, control 93.7): 202.2 ml/100 g/min | coronary blood flow increase (Mongrel dogs [1]; intracoronary 0.5 to 8 μg/kg/min): significantly increasing the coronary blood flow dose-dependently | coronary blood flow increase (Mongrel dogs [1]; intravenous administration): This effect was also observed | Coronary blood flow (Mongrel dogs [1]; with 8-SPT 25 μg/kg/min, Ap4A 0.5 μg/kg/min, control 97.0): 98.6 ml/100 g/min | Coronary blood flow (Mongrel dogs [1]; with 8-SPT 25 μg/kg/min, Ap4A 1 μg/kg/min, control 97.0): 96.8 ml/100 g/min | Coronary blood flow (Mongrel dogs [1]; with 8-SPT 25 μg/kg/min, Ap4A 2 μg/kg/min, control 97.0): 106.1 ml/100 g/min | Coronary blood flow (Mongrel dogs [1]; with 8-SPT 25 μg/kg/min, Ap4A 4 μg/kg/min, control 97.0): 117.0 ml/100 g/min | Coronary blood flow (Mongrel dogs [1]; with 8-SPT 25 μg/kg/min, Ap4A 8 μg/kg/min, control 97.0): 124.5 ml/100 g/min | Coronary blood flow (Mongrel dogs [1]; with 8-SPT + L-NAME, Ap4A 0.5 μg/kg/min, control 97.1): 97.1 ml/100 g/min | Coronary blood flow (Mongrel dogs [1]; with 8-SPT + L-NAME, Ap4A 1 μg/kg/min, control 97.1): 108.6 ml/100 g/min | Coronary blood flow (Mongrel dogs [1]; with 8-SPT + L-NAME, Ap4A 2 μg/kg/min, control 97.1): 102.9 ml/100 g/min | Coronary blood flow (Mongrel dogs [1]; with 8-SPT + L-NAME, Ap4A 4 μg/kg/min, control 97.1): 114.3 ml/100 g/min | Coronary blood flow (Mongrel dogs [1]; with 8-SPT + L-NAME, Ap4A 8 μg/kg/min, control 97.1): 120.0 ml/100 g/min | Coronary blood flow (Mongrel dogs [1]; with L-NAME 3 μg/kg/min (ic), Ap4A 0.5 μg/kg/min, control 90.3): 100.0 ml/100 g/min | Coronary blood flow (Mongrel dogs [1]; with L-NAME 3 μg/kg/min (ic), Ap4A 1 μg/kg/min, control 90.3): 119.4 ml/100 g/min | Coronary blood flow (Mongrel dogs [1]; with L-NAME 3 μg/kg/min (ic), Ap4A 2 μg/kg/min, control 90.3): 122.6 ml/100 g/min | Coronary blood flow (Mongrel dogs [1]; with L-NAME 3 μg/kg/min (ic), Ap4A 4 μg/kg/min, control 90.3): 151.6 ml/100 g/min | Coronary blood flow (Mongrel dogs [1]; with L-NAME 3 μg/kg/min (ic), Ap4A 8 μg/kg/min, control 90.3): 219.4 ml/100 g/min | Myocardial oxygen consumption (Mongrel dogs [2]; Ap4A 0.5 μg/kg/min): 9.9 ml/100 g/min | Myocardial oxygen consumption (Mongrel dogs [2]; Ap4A 1 μg/kg/min): 9.0 ml/100 g/min | Myocardial oxygen consumption (Mongrel dogs [2]; Ap4A 2 μg/kg/min): 8.7 ml/100 g/min | Myocardial oxygen consumption (Mongrel dogs [2]; Ap4A 4 μg/kg/min): 8.7 ml/100 g/min | Myocardial oxygen consumption (Mongrel dogs [2]; Ap4A 8 μg/kg/min): 9.5 ml/100 g/min | myocardial oxygen consumption (MVO2) change (Mongrel dogs [2]; Ap4A 0.5 to 8 μg/kg/min): neither largely increased nor decreased | Myocardial fractional shortening (Mongrel dogs [3]; Ap4A 4 μg/kg/min intracoronary 10 minutes, control 24.7, 1/3 control 4.9): 11.5% | Coronary blood flow (Mongrel dogs [3]; Ap4A 4 μg/kg/min intracoronary 10 minutes, control 90.5, 1/3 control 30.4): 48.2 ml/100 g/min | Coronary perfusion pressure (Mongrel dogs [3]; Ap4A 4 μg/kg/min intracoronary 10 minutes, control 104, 1/3 control 54): 54 mmHg | Myocardial fractional shortening (Mongrel dogs [3]; Ap4A administration stopped, 1/3 control 4.9): 4.8% | Coronary blood flow (Mongrel dogs [3]; Ap4A administration stopped, 1/3 control 30.4): 31.9 ml/100 g/min | Coronary perfusion pressure (Mongrel dogs [3]; Ap4A administration stopped, 1/3 control 54): 54 mmHg | prevention of decrease in myocardial fractional shortening (Mongrel dogs [3]; ischemia, Ap4A 4 μg/kg/min): significantly preventing a decrease in myocardial fractional shortening | amelioration effect on myocardial ischemia (Mongrel dogs [3]; mongrel dogs in a state of excessive ischemia): noticeable amelioration effect on myocardial ischemia | pH of venous blood (Mongrel dogs [4]; Ap4A 4 μg/kg/min intracoronary, control 7.39, 1/3 control 7.23): 7.29 | Lactate extraction ratio (Mongrel dogs [4]; Ap4A 4 μg/kg/min intracoronary, control 28.3, 1/3 control -39.8): -15.8% | pH of venous blood (Mongrel dogs [4]; Ap4A administration stopped, 1/3 control 7.23): 7.19 | Lactate extraction ratio (Mongrel dogs [4]; Ap4A administration stopped, 1/3 control -39.8): -48.6% | ADP-induced human platelet aggregation inhibitory effect (human platelet): ADP-induced human platelet aggregation inhibitory effect | vasodilating effect on rabbit mesenteric arteries [5]: vasodilating effect on rabbit mesenteric arteries | anti-arrhythmia effect [6]: anti-arrhythmia effect | deliberated hypotensive effect [7]: deliberated hypotensive effect | vasodilating effect on coronary vessels (coronary vessels): vasodilating effect on coronary vessels at normal time | degradation in vivo [8]: degraded in vivo to ATP and AMP, which are eventually degraded to adenosine
